Several values for one entry are separate records, joined by “and”; a condition that tells them apart may be missing. Equal values may be shown once. Values belong to the compound of their own block, whether it stands above or below them.
Columns and labels:
[1] = Free-radical scavenging: inhibition of autoxidation of 1-epinephrine (Misra and Fridovich); format: biochemical; conditions: 1-epinephrine 1 x 10⁻⁴M, EDTA 1 x 10⁻⁴M, 30°C, absorbance at 480; read-out: 50% inhibition of the autoxidation rate (ID₅₀)
Protocol: 2-(3,4-dihydro-6-hydroxy-2,5,7,8-tetramethyl-2H-1-benzopyran-2-yl)ethyl-N,N,N-trimethylammonium bromide, described in Example 1, was evaluated for its ability to reduce superoxide radicals in an assay described by H.P. Misra and J. Fridovich, 1972, J. Biol. Chem. 247, 3170-5. In this assay, the rate of autoxidation of 1-epinephrine (1 x 10⁻⁴M) in the presence of EDTA (1 x 10⁻⁴M) at 30°C is followed spectrophotometrically following the increase of absorbance at 480 mn. […] For comparison, 3,4-dihydro-6-hydroxy-2,5,7,8-tetramethyl-2H-1-benzopyran-2-carboxylic acid (CAS 53188-07-1) gave ID₅₀= 105 ± 8 µM and d,1-penicillamine (CAS 52-67-5)ID₅₀ = 73 µM in parallel experiments. Misra and Fridovich report that bovine superoxide dismutase gave 50% inhibition at […].

[2] = system: ligation-induced infarcted and reperfused rats; experiment: Cardioprotective effects: coronary ligation 60 min, reperfusion 30 min, infarcted area / area at risk; format: in vivo
Protocol: 2-(3,4-Dihydro-2,5,7,8-tetramethyl-6-methylcarbonyloxy-2H-1-benzopyran-2-yl)ethyl-N,N,N-trimethylammonium bromide was evaluated in ligation-induced infarcted and reperfused rats as follows. One of two groups of rats was infused intravenously with a solution of test compound in saline at a rate of 2.3 ml/h (10 mg/kg/h). The control group was infused with saline at the same rate. After 10 min of drug infusion, coronary arteries were ligated surgically for 60 min, ligation was loosened to allow reperfusion for 30 min. The ligation was […] dye (Evans Blue) was injected. The animals were sacrificed and the heart ventricles were removed and weighed. The unstained tissue was dissected and weighed; this represents the "area at risk". i.e. the area that was deprived of blood supply by ligation. To determine the infarcted area, the tissue was incubated with 2,3,5-triphenyltetrazolium chloride. Infarcted tissue became light colored and could be dissected and weighed. Thus, for each rat that survived the ligation a measurement of "area at risk" and of "infarcted area" was obtained and the ratio was calculated as given in Tables II and III. TABLE II 3,4-Dihydro-2-(2-dimethylaminoethyl)-2,5,7,8-tetramethyl-2H-1-benzopyran-6-yl acetate hydrochloride was evaluated in ligation-induced infarcted and reperfused rats as follows. One of two groups of rats was infused intravenously with a solution of test compound in saline at a rate of 2.3 ml/h (10 mg/kg/h). The control group was infused with saline at the same rate. After 10 min of drug, coronary arteries were ligated surgically for 60 min, ligation was loosened to allow reperfusion for 30 min. The ligation was […] dye (Evans Blue) was injected. The animals were […] heart […] removed and weighed. The unstained tissue was dissected and weighed; this represents the "area at risk", i.e. the area that was deprived of blood supply by ligation. To determine the infarcted area, the tissue was incubated with 2,3,5-triphenyltetrazolium chloride. Infarcted tissue became light colored and was dissected and weighed. Thus, for each rat that survived the ligation a measurement of "area at risk" and of "infarcted area" was obtained and the ratio was calculated as shown in the following tables.

[3] = Affinity for cardiac tissue: radioactivity in heart and blood after intravenous 14C-labelled compound; format: in vivo; conditions: rats, 0.91 mg base/kg intravenous
Protocol: Following the procedure described in Example11, but using ¹⁴C-methyl p-toluenesulfonate in place of "cold material", ¹⁴C-labelled 2-(3,4-dihydro-2,5,7,8-tetramethyl-6-methylcarbonyloxy-2H-1benzopyranan-2-yl)ethyl-N,N,N-tri-¹⁴C-methylammonium p-toluenesulfonate was synthesized. The preparation was diluted with "cold material" to 11.74 µCi/mg base.
24 rats were given 0.91 mg base/kg by inravenous route (by canula into the jugular vein). The animals were sacrificed in groups of 3 at the time periods indicated in Table I. Immediately before sacrifice a 0.5 ml blood sample was taken from an indwelling catheter in the carotid artery. The hearts were removed, blotted and weighed. The samples of tissue and blood were solubilized with Luma Solve (a quarternary ammonium hydroxide preparation) and radioactivity was determined in a scintillation counter.

[4] = treated group, intravenous infusion 10 mg/kg/h, individual rats, listed as 3,4-Dihydro-2-(2-dimethylaminoethyl)-2,5,7,8-tetramethyl-2H-1-benzopyran-6-yl ac, acetate hydrochloride

Compound: Cc1c(C)c2c(c(C)c1O)CCC(C)(C(=O)O)O2 (stereo not shown) [3,4-dihydro-6-hydroxy-2,5,7,8-tetramethyl-2H-1-benzopyran-2-carboxylic acid]
IC50 [1]: 105 ± 8 µM

Compound: CC(=O)Oc1c(C)c(C)c2c(c1C)CCC(C)(CCN(C)C)O2.Cl (stereo not shown) [Example 4, 3,4-Dihydro-2-(2-dimethylaminoethyl)-2,5,7,8-tetramethyl-2H-benzopyran-6-yl acetate hydrochloride]
reduction of infarction ([2]; treated group (10 mg/kg/h) versus saline control group): 48.2%
Ratio % (infarcted tissue / tissue at risk), average ([2]; treated group, intravenous infusion 10 mg/kg/h, group average): 38.0%
Infarcted tissue [2, 4]: 337 mg and 80 mg and 51 mg (2×) and 346 mg and 18 mg and 294 mg and 34 mg
Ratio % (infarcted tissue / tissue at risk) [2, 4]: 70.1% and 40.3% and 10% and 83.2% and 4% and 71.6% and 17.5% and 7.0%

Compound: Cc1c(C)c2c(c(C)c1O)CCC(C)(CC[N+](C)(C)C)O2 (stereo not shown) [Example 10, 2-(3,4-Dihydro-6-hydroxy-2,5,7,8-tetramethyl-2H-1-benzo-pyran-2-yl)ethyl-N,N,N-trimethylammonium bromide]
IC50 [1]: 138 ± 14 µM

Compound: CC(=O)Oc1c(C)c(C)c2c(c1C)CCC(C)(CC[N+](C)(C)C)O2.[Br-] (stereo not shown) [Example 11, 2-(3,4-Dihydro-2,5,7,8-tetramethyl-6-methylcarbonyloxy-2H-1-benzopyran-2-yl)ethyl-N,N,N-trimethylammonium bromide]
Infarcted tissue ([2]; treated group, intravenous infusion 10 mg/kg/h, individual rats): 23 mg and 27 mg and 39 mg and 33 mg

Ratio heart/blood ([3]; 5 min after administration): 3.05±1.46
ng equiv/ml blood ([3]; 5 min after administration): 0.434±0.351 ng equiv/ml
Ratio heart/blood ([3]; 15 min after administration): 6.90±8.34
ng equiv/ml blood ([3]; 15 min after administration): 0.590±0.295 ng equiv/ml
Ratio heart/blood ([3]; 30 min after administration): 17.33±5.42
ng equiv/ml blood ([3]; 30 min after administration): 0.124±0.032 ng equiv/ml
Ratio heart/blood ([3]; 1 hour after administration): 20.09±2.54
ng equiv/ml blood ([3]; 1 hour after administration): 0.096±0.008 ng equiv/ml
Ratio heart/blood ([3]; 2 hours after administration): 21.90±3.56
ng equiv/ml blood ([3]; 2 hours after administration): 0.086±0.041 ng equiv/ml
ng equiv/ml blood ([3]; 4 hours after administration): 0.054±0.013 ng equiv/ml
Ratio heart/blood ([3]; 4 hours after administration, listed as 2-(3,4-dihydro-2,5,7,8-tetramethyl-6-methylcarbonyloxy-2H-1benzopyranan-2-yl)eth, p-toluenesulfonate): 27.15 and 27.15±4.30
Ratio heart/blood ([3]; 6 hours after administration): 18.62±2.77
ng equiv/ml blood ([3]; 6 hours after administration): 0.048±0.007 ng equiv/ml
Ratio heart/blood ([3]; 8 hours after administration): 15.12±2.69
ng equiv/ml blood ([3]; 8 hours after administration): 0.048±0.012 ng equiv/ml
concentration of drug in heart tissue ([3]; after 8 h): 0.65 µg equiv/g
Compound: CC(=O)Oc1c(C)c(C)c2c(c1C)CCC(C)(CC[N+](C)(C)C)O2.Cc1ccc(S(=O)(=O)[O-])cc1 (stereo not shown) [Example 18, 2-(3,4-Dihydro-2,5,7,8-tetramethyl-6-methylcarbonyloxy-2H-1-benzopyran-2-yl)ethyl-N,N,N-trimethylammonium p-toluenesulfonate]

Compound: d,1-penicillamine
IC50 [1]: 73 µM

From patent EP0369874A2, “Cardioprotective tocopherol analogs” (MERRELL DOW PHARMACEUTICALS INC., priority 1988, dated 1990)
